These results are taken from patent US4191780A, “Bromhexine derivatives and process for making same” (priority 1978, dated 1980).

Entries after “also recorded” stand apart in the source; their conditions may differ.

Series [1] concerns bronchial secretion. As to conditions: animal experiments; Engelhorn 1966, Merker 1966, Boyd 1966; cited from earlier work.
Series [2] concerns various types of cough. To be noted: animal experiments; Engelhorn 1966, Merker 1966, Boyd 1966; cited from earlier work.
A short description of series [3]: Long-term toxicity in rats: urine analysis. It counts as in vivo. On the procedure: Urine analysis is carried out on 6 animals per group (3 males and 3 females) before as well as 30 and 60 days after treatment. Control group and the animals receiving 250 mg/kg Bromhexine and 350 mg/kg IFT 1026 respectively are observed.
The amount, aspect, colour, pH value, albumin, glucose, bilirubin levels and ketone bodies are recorded using also Ames reactive stripes.

Series [4] has as its system amphetamine-induced stereotypies. The series can be described thus: Action on the amphetamine-induced stereotypies and toxicity on mice. As to conditions: 500 mg/kg/10 ml p.o., 60 min before dl-amphetamine 16 mg/kg/ml i.p. How it is done: Stereotypies and death are caused 60 min. after treatment with IFT 1026 (500 mg/kg/10 ml p.o.) by injecting dl-amphetamine (16 mg/kg/ml i.p.) to groups of 10 male albino Swiss mice per cage.

In series [5] the test system is Cough elicited by 15% citric acid spray. The series can be described thus: Antitussive effect in Guinea-pigs and mice (overall). It counts as in vivo. To be noted: mice (oral) and Guinea-pigs (i.p.). On the procedure:
(6) Antitussive effect in Guinea-pigs and mice
The effect was tested 1 hour after oral administration and 30 min. after intraperitoneal application of the antitussive agents on mice and Guinea-pigs respectively.

The test system of series [6] is blood pressure and heart rate. Kind of series: Action on blood pressure and heart rate in the anesthetized rat. It counts as in vivo. As to conditions: intraperitoneal. How it is done:
After intraperitoneal administration of increasing doses of IFT 1026, blood pressure, heart rate and the amplitude of heart contractions are unchanged. The effect of IFT 1026 at the dose of 450 mg/kg on blood pressure in the anesthesized rat is exemplified by the graph in FIG. No. 1.
FIG. 1--Arterial pressure recorded in the anaesthetized rat before and after IFT 1026 administration.

Series [7] is described as follows: Acute toxicity in rats treated orally. It counts as in vivo. To be noted: oral.

In the case of `CN(Cc1cc(Br)cc(Br)c1N)C1CCCCC1` [Bromhexine, N-cyclohexyl-N-methyl-2-(2-amino-3,5-dibromo)benzylammonium chloride], the “stimulation of bronchial secretion” value in series [1] is “marked stimulation”. In addition, the “effects on various types of cough” value in series [2] is on record as “depressing effects”.

As for `COc1ccccc1OCC(=O)Nc1c(Br)cc(Br)cc1CN(C)C1CCCCC1` [IFT 1026, N-(2-guaiacol-glycolyl-amino-3,5-dibromobenzyl)N-cyclohexylmethylamine], the “urine amount, aspect, colour, pH, albumin, glucose, bilirubin, ketone bodies” value in series [3] (250 mg/kg Bromhexine, 350 mg/kg IFT 1026, 30 and 60 days) is given as “no changes occur in said parameters”. For the same compound, the “impairment in the kidney” value in series [3] (350 mg/kg IFT 1026) is “no impairment in the kidney”. In series [4], the amphetamine-induced death entry was “not changed” and the amphetamine-induced stereotypies result is given as “not changed”. Further, in series [5], the “antitussive effect compared in terms of the parent compound (Bromhexine)” value was “the same when compared in terms of the parent compound” and the “antitussive effect compared with Bromhexine” value is on record as “slightly weaker than Bromhexine; also recorded: approximately the same as that of Bromhexine”. In series [6] (increasing doses), the “amplitude of heart contractions” value is “unchanged” and the heart rate result was “unchanged”. For the same compound, the blood pressure result in series [6] (rat, increasing doses (450 mg/kg in FIG. 1)) is “unchanged”. Moreover, in series [7] (high doses (up to 3000 mg/kg)), the “behaviour / clinical signs” value is “slight depression in behaviour, occasional tremor and stiffness”. The lethal cases entry in series [7] (increasing doses up to 3000 mg/kg, up to the seventh day after treatment) is recorded as “no lethal cases”.
